Measured values as given in ChEMBL document CHEMBL4177672 (Bioorg Med Chem Lett, 2017).
Values after ≈ are worked out from the molar mass of the structure shown.

Each compound was assayed on Mycolicibacterium smegmatis (assay: Antitubercular activity against Mycobacterium smegmatis ATCC 607 incubated at 37 degC for 7 days by resazurin dye based fluorometry). Details: ATCC 607, 168 h.
Assay type: functional

Structure (SMILES) | IC90
COc1nc2ccc(Br)cc2cc1C(c1ccoc1)C(O)(CCN(C)C)c1ccccc1 (racemic) | 0.06 to 1.57 µg/mL (≈ 0.121 to 3.17 µM)

What follows are compounds tested on Vero (assay: Cytotoxicity against African green monkey Vero cells after 72 hrs by MTS-PMS assay). Details: Chlorocebus sabaeus.
Assay type: cell-based

Structure (SMILES) | IC50
COc1nc2ccc(Br)cc2cc1[C@@H](c1ccc(N(C)C)nc1)[C@@](O)(CCN(C)C)c1cccc(F)c1 | > 10 µg/mL
COc1nc2ccc(Br)cc2cc1[C@@H](c1cccnc1N(C)C)[C@@](O)(CCN(C)C)c1cccc(F)c1 | > 10 µg/mL
COc1nc2ccc(Br)cc2cc1[C@@H](c1cc(C)c(C)s1)[C@@](O)(CCN(C)C)c1cccc(F)c1 | > 10 µg/mL
COc1nc2ccc(Br)cc2cc1[C@@H](c1cncc(C)c1)[C@@](O)(CCN(C)C)c1cccc(F)c1 | > 10 µg/mL
COc1nc2ccc(Br)cc2cc1[C@@H](c1ccnc(OC)c1OC)[C@@](O)(CCN(C)C)c1cccc(C#N)c1 | > 10 µg/mL
CCSc1ccc([C@H](c2cc3cc(Br)ccc3nc2OC)[C@@](O)(CCN(C)C)c2cccc(F)c2)cn1 | > 10 µg/mL
COc1nc2ccc(Br)cc2cc1[C@@H](c1ccnc(OC)c1OC)[C@@](O)(CCN(C)C)c1cccc(C)c1 | > 10 µg/mL
COc1nc2ccc(Br)cc2cc1[C@@H](c1ccnc(OC)c1OC)[C@@](O)(CCN(C)C)c1cccc(OC(F)F)c1 | > 10 µg/mL
COc1cc([C@H](c2cc3cc(Br)ccc3nc2OC)[C@@](O)(CCN(C)C)c2cccc(F)c2)cnc1OC | > 10 µg/mL
COc1nc2ccc(Br)cc2cc1[C@@H](c1ccccc1)[C@@](O)(CCN(C)C)c1cccc2ccccc12 [BEDAQUILINE] | > 10 µg/mL

What follows are compounds tested on Homo sapiens (assay: Terminal half life in healthy human subjects dosed as single 400 mg dose on Day 1 followed by PK sampling (Days 1 to 14)). Details: in vivo.
Assay type: ADME, organism-based

Structure (SMILES) | beta t1/2
COc1nc2ccc(Br)cc2cc1[C@@H](c1ccccc1)[C@@](O)(CCN(C)C)c1cccc2ccccc12 [BEDAQUILINE] | 5 to 6 months

The compounds below were run on Mycobacterium tuberculosis (assay: Growth inhibition of Mycobacterium tuberculosis H37Rv under aerobic condition after 4 days by MABA method). Details: 96 h.
Assay type: functional

Structure (SMILES) | MIC90
COc1ncccc1C(c1cc2cc(Br)ccc2nc1OC)C(O)(CCN(C)C)c1cccc2c1OCO2 (mixture of isomers) | 0.24 µg/mL
